The target of the first experiment is T1, Muscarinic acetylcholine receptor M4 (Homo sapiens, UniProt P08173).
T1 sequence (P08173 whole entry): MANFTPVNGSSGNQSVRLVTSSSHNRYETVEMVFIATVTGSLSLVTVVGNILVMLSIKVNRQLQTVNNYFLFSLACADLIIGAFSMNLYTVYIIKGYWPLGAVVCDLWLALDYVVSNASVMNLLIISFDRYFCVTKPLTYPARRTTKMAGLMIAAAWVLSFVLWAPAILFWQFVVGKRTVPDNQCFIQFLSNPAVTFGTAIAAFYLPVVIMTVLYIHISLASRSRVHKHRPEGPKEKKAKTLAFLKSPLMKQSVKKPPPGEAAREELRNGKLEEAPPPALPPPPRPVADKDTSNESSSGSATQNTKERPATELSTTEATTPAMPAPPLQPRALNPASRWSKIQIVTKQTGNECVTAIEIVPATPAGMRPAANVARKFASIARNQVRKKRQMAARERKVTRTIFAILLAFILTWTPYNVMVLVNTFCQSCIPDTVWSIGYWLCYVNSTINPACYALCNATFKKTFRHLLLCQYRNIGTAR
Put plainly: Agonist activity at human M4 receptor. The experiment is classed as functional.
As for `COc1nc2sc(C(=O)NC3CC3)c(N)c2c(C)c1Cl`, the EC50 was 0.039 µM.

`CCNC(=O)c1sc2nc(OC)c(Cl)c(C)c2c1N` gave an EC50 of 0.2 µM.

In the next experiment the target is T1, Muscarinic acetylcholine receptor M4. The experiment is described as follows: Agonist activity at human recombinant M4 muscarinic acetylcholine receptor assessed as calcium mobilization by FLIPR analysis. The experiment is classed as functional. A general note: Calcium flux is commonly read through the fluorescence of an indicator in the cells.
Consider `Cc1cc(C)c2c(N)c(C(=O)NCc3ccccc3)sc2n1`, for which the EC50 stood at 0.0013 µM.

With `Cc1cc(C)c2c(N)c(C(=O)NCc3ccco3)sc2n1`, the EC50 stood at 0.395 µM.

Turning to `Cc1cc(C)c2c(N)c(C(=O)NCc3ccc(Cl)cc3)sc2n1`, the EC50 was 0.4 µM.

On to `Cc1nc2sc(C(=O)NCc3ccncc3)c(N)c2c(C)c1Cl`, for which the EC50 is 0.077 µM.

`Cc1cc(C)c2c(N)c(C(=O)NCc3ccc4c(c3)OCO4)sc2n1`: the EC50 was found to be 0.403 µM.

On to `Cc1nnc2sc(C(=O)NCc3ccc(-c4ccnc(F)c4)cc3)c(N)c2c1C`, for which the EC50 was determined as 0.091 µM.

The target of another experiment is T2, Muscarinic acetylcholine receptor M2 (Homo sapiens, UniProt P08172).
T2 sequence (P08172 whole entry): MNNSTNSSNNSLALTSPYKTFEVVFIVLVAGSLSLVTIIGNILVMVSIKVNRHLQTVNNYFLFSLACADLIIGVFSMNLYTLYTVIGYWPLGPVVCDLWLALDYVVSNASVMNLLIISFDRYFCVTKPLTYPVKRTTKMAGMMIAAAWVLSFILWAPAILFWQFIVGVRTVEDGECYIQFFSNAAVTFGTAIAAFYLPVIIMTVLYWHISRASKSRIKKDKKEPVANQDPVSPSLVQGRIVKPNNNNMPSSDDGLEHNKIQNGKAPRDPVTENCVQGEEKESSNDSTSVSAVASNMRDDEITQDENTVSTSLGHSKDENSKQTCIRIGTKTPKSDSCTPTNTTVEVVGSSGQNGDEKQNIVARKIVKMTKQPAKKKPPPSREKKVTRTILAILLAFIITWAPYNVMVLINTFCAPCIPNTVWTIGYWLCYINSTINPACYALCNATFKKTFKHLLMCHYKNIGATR
Put plainly: Agonist activity at human M2 receptor. The experiment is classed as functional.
On to `COC(=O)N1CCC(N2CCC(n3c(=O)n(C)c4ccccc43)CC2)CC1`, for which the EC50 was 0.135 µM.

By EC50 is commonly meant the concentration that produces a half-maximal response.

Source of the values: ChEMBL document CHEMBL6109174, “The Prosperity and Adversity of M4 Muscarinic Acetylcholine Receptor Activators in the Treatment of Neuropsychiatric Disorders” (J Med Chem, 2025).
